# Test results reported in patent US20240142438A1, “MULTI-ORGAN MODEL” (CELLARTGEN INC., priority 2021, published 2024).
# Entries after “also recorded” stand apart in the source; their conditions may differ.
# Columns and labels:
# liver organoid = assay: Candidate drugs on liver organoid in multi-organ NASH organoid model (chip); format: cell-based, mouse; settings: oleic acid 500 μM + drug 50 μM, 3 days; for low-density cholesterol (LDL) levels in the liver organoids: cholesterol analysis of disrupted organoids, vs No Treatment (NT)
# Protocol: (§1) A multi-organ NASH model was constructed by applying not only conventional Matrigel, a commercially available culture scaffold, but also a decellularized tissue-derived hydrogel scaffold to culture of each organoid in a multi-organ device. Liver and pancreas organoids were obtained by extracting adult stem cells from a mouse tissue, encapsulated in a decellularized liver tissue-derived matrix (6 mg/ml) and a decellularized pancreas tissue-derived matrix (4 mg/ml), respectively, at a cell density of 70,000 cells/30 μL gel, and cultured. An intestinal organoid was obtained by extracting intestinal crypts from a mouse intestinal tissue and encapsulated in a decellularized intestinal tissue-derived matrix (2 mg/ml) at a cell density of 800 crypts/30 μL gel, and cultured. […] The cardiac organoid was cultured on a hydrogel (20 organoids/70 μL gel bed) prepared by crosslinking of a decellularized cardiac tissue-derived matrix (5 mg/ml) in the form of a 70 μL gel bed at the bottom of the device. The decellularized matrix for culturing each organoid was applied at the optimal concentration for differentiation of each organoid as determined through previous research.
# Obeticholic acid (OCA), a semi-synthetic bile acid analog, is an agonist for FXR (farnesoid X receptor) to regulate bile acid metabolism, inflammation, fibrosis, and sugar/lipid metabolism. […] Elafibranor (Ela), a dual agonist for PPARα/δ, is a drug that inhibits fatty acid biosynthesis and glucose biosynthesis in the liver and has been used as a drug for cardiometabolic diseases. Liraglutide (Lira), an agonist for glucagon-like peptide-1 (GLP-1), is a drug that has been used to treat diabetes.
# cardiac organoid = assay: Candidate drugs on cardiac organoid in multi-organ NASH organoid model (chip); format: cell-based, mouse; settings: oleic acid 500 μM + drug 50 μM, 3 days in liver chamber
# Protocol: as §1
# intestinal organoid = assay: Candidate drugs on intestinal organoid in multi-organ NASH organoid model (chip); format: cell-based, mouse; settings: oleic acid 500 μM + drug 50 μM, 3 days in liver chamber
# Protocol: as §1
# [1] = test system: human iPSC-derived liver organoids; assay: Candidate drugs on hiPSC-derived liver organoids in multi-organ NASH model; format: cell-based; settings: oleic acid 500 μM + drug 50 μM, 3 days
# Protocol: Human iPSC-derived liver organoids were differentiated into hepatic endoderm cells through endoderm, and then a total of 500,000 cells including the hepatic endoderm cells, vascular endothelial cells (HUVEC) and mesenchymal stem cells (hMSC) at a ratio of 10:7:2 were mixed in 10 μL of culture medium. The mixture was coated onto 10 μL of a decellularized liver tissue-derived matrix (LEM) to induce the formation of three-dimensional organoids. […] Human iPSC-derived pancreas organoids were differentiated into beta cells through endoderm, gut endoderm, pancreatic endoderm, and pancreatic progenitor cells, and then a total of 500,000 cells including the beta cells, vascular endothelial cells (HUVEC) and mesenchymal stem cells (hMSC) at a ratio of 10:7:2 were mixed in 10 μL of culture medium. The mixture was coated onto 10 μL of a decellularized pancreas tissue-derived matrix (PEM) to induce the formation of three-dimensional organoids. […] Each organoids cultured in a decellularized tissue-derived matrix was seeded into a multi-organ microfluidic device and then cultured in a normal culture medium suitable for each organ for 2 days. Then, the NASH group was treated with oleic acid (500 μM) and cultured for 3 days only in the chamber in which the liver organoid was cultured, and the groups treated with the respective drugs were treated with oleic acid (500 μM) and the respective drugs (50 μM) for 3 days in the chamber in which the liver organoid was cultured. A multi-organ device in which a normal liver organoid (Normal) not treated with the fatty acid was used as a control group.
# pancreas organoid = assay: Candidate drugs on pancreas organoid in multi-organ NASH organoid model (chip); format: cell-based, mouse; settings: oleic acid 500 μM + drug 50 μM, 3 days in liver chamber
# Protocol: as §1
# [2] = test system: human iPSC-derived cardiac organoids; settings: immunofluorescence staining; oleic acid 500 μM + drug 50 μM, 3 days in liver chamber
# Protocol: (§2) Human iPSC-derived intestinal organoids were differentiated into hindgut spheroids through endoderm, encapsulated in Matrigel, and matured for about 20 to 30 days. The mature intestinal organoids were extracted from Matrigel, re-encapsulated in a decellularized intestinal tissue-derived matrix
# (§3) (IEM), and further cultured. […] Human iPSC-derived cardiac organoids were induced to mature into cardiomyocytes through mesenchyma and cardiac progenitor cells, and then 400,000 cells were mixed in 20 μL of a decellularized heart tissue-derived matrix (HEM) to prepare three-dimensional organoids. […] Each organoids cultured in a decellularized tissue-derived matrix was seeded into a multi-organ microfluidic device and then cultured in a normal culture medium suitable for each organ for 2 days. Then, the NASH group was treated with oleic acid (500 μM) and cultured for 3 days only in the chamber in which the liver organoid was cultured, and the groups treated with the respective drugs were treated with oleic acid (500 μM) and the respective drugs (50 μM) for 3 days in the chamber in which the liver organoid was cultured. A multi-organ device in which a normal liver organoid (Normal) not treated with the fatty acid was used as a control group.
# [3] = test system: human iPSC-derived pancreas organoids; settings: immunofluorescence staining; oleic acid 500 μM + drug 50 μM, 3 days in liver chamber
# Protocol: Human iPSC-derived liver organoids were differentiated into hepatic endoderm cells through endoderm, and then a total of 500,000 cells including the hepatic endoderm cells, vascular endothelial cells (HUVEC) and mesenchymal stem cells (hMSC) at a ratio of 10:7:2 were mixed in 10 μL of culture medium. The mixture was coated onto 10 μL of a decellularized liver tissue-derived matrix (LEM) to induce the formation of three-dimensional organoids. […] Human iPSC-derived pancreas organoids were differentiated into beta cells through endoderm, gut endoderm, pancreatic endoderm, and pancreatic progenitor cells, and then a total of 500,000 cells including the beta cells, vascular endothelial cells (HUVEC) and mesenchymal stem cells (hMSC) at a ratio of 10:7:2 were mixed in 10 μL of culture medium. The mixture was coated onto 10 μL of a decellularized pancreas tissue-derived matrix (PEM) to induce the formation of three-dimensional organoids. […] Each organoids cultured in a decellularized tissue-derived matrix was seeded into a multi-organ microfluidic device and then cultured in a normal culture medium suitable for each organ for 2 days. […]
# [4] = test system: human iPSC-derived intestinal organoids; settings: immunofluorescence staining, oleic acid 500 μM + drug 50 μM, 3 days in liver chamber
# Protocol: as §2, §3
compound,measurement,setting,value
"CSc1ccc(C(=O)/C=C/c2cc(C)c(OC(C)(C)C(=O)O)c(C)c2)cc1 [Ela, Elafibranor]",low-density cholesterol (LDL) levels in the liver organoids,liver organoid,an improvement in LDL levels compared to the No Treatment (NT) group; also recorded: a greater improvement than Lira
same,"expression level of α-SMA, a fibrosis marker (fibrosis)",liver organoid; immunofluorescence staining,improved the most
same,COL1A1 expression,liver organoid; quantitative PCR,remarkably effective in reducing the increased expression of COL1A1
same,"expression levels of HNF4A and ALB, hepatic differentiation markers",liver organoid; quantitative PCR,no significant effect on hepatic differentiation and functional recovery
same,"expression of α-SMA and COL1A1, fibrosis and drug toxicity-related markers",liver organoid; quantitative PCR,improved
same,"expression of CTNT and F-actin, myocardial differentiation and actin-filament markers",cardiac organoid; immunostaining,recovered to some extent
same,"expression level of ACTC1, a cardiac differentiation marker",cardiac organoid; quantitative PCR,recovered
same,"expression level of OCLN, a tight junction marker of the gut barrier",intestinal organoid; quantitative PCR,not improved
same,"expression levels of CHGA and MUC2, intestinal differentiation markers",intestinal organoid; quantitative PCR,not much recovered; also recorded: lower in the Ela-treated group than in No Treatment (NT) group
"O=C1[C@H](CC[C@H](O)c2ccc(F)cc2)[C@@H](c2ccc(O)cc2)N1c1ccc(F)cc1 [Eze, Ezetimibe]",expression level of FGF19,[1]; immunofluorescence staining,recovered only in the OCA-treated group
same,"expression level of α-SMA, a fibrosis and drug toxicity-related marker",[1]; immunofluorescence staining,decreased to some extent
same,fatty acid accumulation (BODIPY staining),[1],partially decreased
same,structure of the liver organoids,[1]; optical microscopy,some of the cells in the outer part died
same,low-density cholesterol (LDL) levels in the liver organoids,liver organoid,significantly lower than those in the No Treatment (NT) group
same,"expression levels of HNF4A and ALB, hepatic differentiation markers",liver organoid; quantitative PCR,recovered to some extent
same,"expression of α-SMA and COL1A1, fibrosis and drug toxicity-related markers",liver organoid; quantitative PCR,improved
same,"expression level of KRT19, a pancreatic exocrine cell marker",pancreas organoid; quantitative PCR,recovered to some extent
same,"expression level of PDX1, an endocrine cell marker",pancreas organoid; quantitative PCR,not recovered
same,"expression levels of CTNT and F-actin, myocardial differentiation and actin-filament markers",[2],recovered to some extent
same,"expression levels of insulin and NKX6.1, pancreatic differentiation markers",[3],less significantly recovered
same,expression level of NPC1L1,[4],decreased
same,"expression level of the differentiation marker, MUC2",[4]; vs No Treatment group,recovered to some extent
same,"expression level of ACTC1, a cardiac differentiation marker",cardiac organoid; quantitative PCR,limitations in improving cardiac differentiation/functionality
same,expression of NPC1L1,intestinal organoid; immunostaining,the most significant decrease in expression
same,"expression level of OCLN, a tight junction marker of the gut barrier",intestinal organoid; quantitative PCR,recovered to some extent
same,"expression levels of CHGA and MUC2, intestinal differentiation markers",intestinal organoid; quantitative PCR,not much recovered
same,gene expression of FGF15 in the intestinal organoid,intestinal organoid; quantitative PCR,recovered to some extent
"CCCCCCCCCCCCCCCC(=O)N[C@@H](CCC(=O)NCCCC[C@H](NC(=O)[C@H](C)NC(=O)[C@H](C)NC(=O)[C@H](CCC(N)=O)NC(=O)CNC(=O)[C@H](CCC(=O)O)NC(=O)[C@H](CC(C)C)NC(=O)[C@H](Cc1ccc(O)cc1)NC(=O)[C@H](CO)NC(=O)[C@H](CO)NC(=O)[C@@H](NC(=O)[C@H](CC(=O)O)NC(=O)[C@H](CO)NC(=O)[C@@H](NC(=O)[C@H](Cc1ccccc1)NC(=O)[C@@H](NC(=O)CNC(=O)[C@H](CCC(=O)O)NC(=O)[C@H](C)NC(=O)[C@@H](N)Cc1cnc[nH]1)[C@@H](C)O)[C@@H](C)O)C(C)C)C(=O)N[C@@H](CCC(=O)O)C(=O)N[C@@H](Cc1ccccc1)C(=O)N[C@H](C(=O)N[C@@H](C)C(=O)N[C@@H](Cc1c[nH]c2ccccc12)C(=O)N[C@@H](CC(C)C)C(=O)N[C@H](C(=O)N[C@@H](CCCNC(=N)N)C(=O)NCC(=O)N[C@@H](CCCNC(=N)N)C(=O)NCC(=O)O)C(C)C)[C@@H](C)CC)C(=O)O [Lira, Liraglutide]",epithelial lumen of the pancreas organoids,pancreas organoid; optical microscopy,"increased in thickness, showing the pattern of early fibrosis"
same,"expression level of α-SMA, a fibrosis and drug toxicity-related marker",pancreas organoid; quantitative PCR,pancreatitis and fibrosis were reduced
same,"expression level of α-SMA, a fibrosis and drug toxicity-related marker",cardiac organoid; immunostaining,fibrosis was not improved
same,shape of the cardiac organoids,cardiac organoid; optical microscopy,"some cells inside the organoids died, inducing severe cardiotoxicity"
same,"expression level of α-SMA, a fibrosis and drug toxicity-related marker (fibrosis)",cardiac organoid; quantitative PCR,fibrosis tended to worsen
same,gut barrier and budding of the intestinal organoid,intestinal organoid; optical microscopy,the gut barrier was maintained to some extent but organoid budding hardly occurred
